Some test systems named below: SF-295 CNS; SF-539 CNS; DU-145 prostate; HCC-2998 colon; OVCAR-5 ovarian; MDA-MB-435; U251 CNS; HCT-15 colon; SK-MEL-28 melanoma; RPMI-8226 leukemia.
Holding throughout (experiment): NCI-60 cell line screen, 48 h

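Dose response: 5 concentrations. Exposure: 48 h. Format: 96-well plates. Endpoint: linear interpolation; highest concentration if not reached. GI50: concentration for 50% inhibition of growth. Definition used: TGI = concentration required for complete inhibition of growth.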

On to `COc1cc2c3c(n(CCCCNC(=O)OCC4c5ccccc5-c5ccccc54)c(=O)c2cc1OC)-c1cc2c(cc1C3=O)OCO2`, for which the GI50 with SF-295 CNS was greater than 100000 nM; in the test with SF-539 CNS, 6420 nM; in the test with DU-145 prostate it was 8.04 µM; in the test on HCC-2998 colon, 14.9 µM; in the test with OVCAR-5 ovarian it was 17.4 µM; in the test on MDA-MB-435, 64900 nM. Further, the figures for the GI50 with U251 CNS, in the test with HCT-15 colon and in the test with SK-MEL-28 melanoma were 11.2 µM, 12900 nM and greater than 100 µM, respectively. In addition, the TGI in the test on SF-295 CNS was greater than 100 µM; with SF-539 CNS, 37.6 µM; in the test on DU-145 prostate, greater than 100 µM; in the test with HCC-2998 colon, greater than 100 µM; in the test on OVCAR-5 ovarian it was 51 µM; with MDA-MB-435 it was greater than 100 µM. Also, the figures for the TGI with U251 CNS, in the test with HCT-15 colon and in the test with SK-MEL-28 melanoma were 65.3 µM, 80.3 µM and greater than 100 µM, respectively.

As for `COC(=O)c1cc2c3ccccc3n3c(=O)c4cc5cc(OC)c(N(S(=O)(=O)c6ccc(C)cc6)S(=O)(=O)c6ccc(C)cc6)cc5nc4c(n1)c23`, the GI50 is 5150 nM in the test on SF-295 CNS; 13000 nM in the test on SF-539 CNS; 32 µM with DU-145 prostate; greater than 100 µM with HCC-2998 colon; greater than 100 µM in the test with OVCAR-5 ovarian; greater than 100000 nM with MDA-MB-435. In addition, the GI50 was 2.62 µM in the test on U251 CNS, greater than 100000 nM in the test on HCT-15 colon and greater than 100 µM in the test on SK-MEL-28 melanoma. Moreover, the TGI with SF-295 CNS is 21.7 µM; in the test on SF-539 CNS it was 30.6 µM; in the test on DU-145 prostate, greater than 100 µM; in the test on HCC-2998 colon, greater than 100 µM; in the test with OVCAR-5 ovarian it was greater than 100 µM; in the test with MDA-MB-435 it was greater than 100 µM. The TGI was 13.4 µM in the test on U251 CNS, greater than 100 µM in the test on HCT-15 colon and greater than 100 µM in the test on SK-MEL-28 melanoma.

In the case of `O=C1Nc2ccccc2/C1=C/c1cn(C(=O)c2c(Cl)cccc2Cl)c2ccccc12`, the GI50 with SF-295 CNS was 2240 nM; in the test on SF-539 CNS, 4960 nM; in the test with DU-145 prostate, 2.72 µM; in the test with HCC-2998 colon it was 6.03 µM; with RPMI-8226 leukemia, 3380 nM; in the test with OVCAR-5 ovarian, 8.85 µM. Further, the values for the GI50 in the test on MDA-MB-435, in the test on U251 CNS and in the test on HCT-15 colon were 2240 nM, 3.47 µM and 3460 nM, respectively. Further, the TGI in the test with SF-295 CNS was 9.3 µM; with SF-539 CNS, 21.1 µM; with DU-145 prostate, 9.24 µM; in the test with HCC-2998 colon it was 19.6 µM; in the test on RPMI-8226 leukemia it was 23.6 µM; with OVCAR-5 ovarian, 50.1 µM. In addition, the TGI in the test with MDA-MB-435 stood at 7.1 µM; with U251 CNS it was 15.5 µM; in the test with HCT-15 colon, 22.6 µM.

With `Cc1ccc(/C=C/C(=O)c2ccc(N)cc2)c(C)c1`, the GI50 is 19800 nM in the test with SF-295 CNS; 2390 nM in the test with SF-539 CNS; 10.8 µM in the test with DU-145 prostate; 15.6 µM in the test with HCC-2998 colon; 2120 nM in the test with RPMI-8226 leukemia; 7.32 µM in the test on OVCAR-5 ovarian. Moreover, the GI50 is 4010 nM in the test with MDA-MB-435, 6.5 µM in the test with U251 CNS and 16.6 µM in the test with SK-MEL-28 melanoma. In addition, the TGI in the test on SF-295 CNS was found to be 40.2 µM; in the test on SF-539 CNS it was 5.45 µM; in the test on DU-145 prostate, 22.7 µM; in the test with HCC-2998 colon, 30.6 µM; with RPMI-8226 leukemia, 4.99 µM; with OVCAR-5 ovarian, 27.9 µM. The TGI in the test with MDA-MB-435 worked out at 15.5 µM; with U251 CNS, 19.3 µM; with SK-MEL-28 melanoma, 30.3 µM.

As to `COc1ccc(/C(=N\O)c2cc(OC)c(OC)c(OC)c2)c(OC)c1N`, the GI50 in the test with SF-295 CNS is 2370 nM; in the test on SF-539 CNS it was 2890 nM; with DU-145 prostate, 4.02 µM; in the test on HCC-2998 colon, 3.29 µM; in the test with RPMI-8226 leukemia it was 4440 nM; with MDA-MB-435, 653 nM. Further, the GI50 was 5.17 µM in the test with U251 CNS and 2640 nM with HCT-15 colon. Further, the TGI was greater than 100 µM with SF-295 CNS; greater than 100 µM in the test with SF-539 CNS; greater than 100 µM in the test with DU-145 prostate; greater than 100 µM in the test on HCC-2998 colon; greater than 100 µM in the test on RPMI-8226 leukemia; 4.65 µM with MDA-MB-435. Further, the TGI in the test with U251 CNS and with HCT-15 colon was greater than 100 µM each time.

Regarding `COc1cc(C(=O)/C=C/c2c(-c3ccc(F)cc3)nc3ncccn23)cc(OC)c1OC`, the GI50 in the test with SF-295 CNS is 2430 nM; in the test with SF-539 CNS, 1550 nM; with DU-145 prostate it was 1.63 µM; in the test with HCC-2998 colon, 1.77 µM; with RPMI-8226 leukemia it was 2560 nM; with OVCAR-5 ovarian, 2.46 µM. The GI50 in the test on MDA-MB-435 is 2360 nM; in the test on U251 CNS, 1.68 µM; in the test with SK-MEL-28 melanoma it was 3.68 µM. For the same molecule, the TGI in the test with SF-295 CNS was 6.53 µM; with SF-539 CNS it was 3.77 µM; with DU-145 prostate, 6.11 µM; in the test on HCC-2998 colon it was 3.42 µM; in the test with RPMI-8226 leukemia, greater than 100 µM; in the test on OVCAR-5 ovarian, 7.37 µM. Further, the TGI with MDA-MB-435 is 96.6 µM; in the test on U251 CNS it was 12.9 µM; in the test with SK-MEL-28 melanoma it was greater than 100 µM.

Consider `COc1cc2c(cc1OCCCCCn1c(-c3ccco3)nc3ccccc31)N=C[C@@H]1CCCN1C2=O`, for which the GI50 is less than 10 nM in the test on SF-295 CNS; less than 10 nM in the test on SF-539 CNS; less than 0.0152 µM with DU-145 prostate; less than 0.01 µM in the test with HCC-2998 colon; less than 10 nM in the test with RPMI-8226 leukemia; less than 10 nM with MDA-MB-435. Besides, the GI50 in the test on U251 CNS was less than 0.01 µM; in the test on HCT-15 colon it was 45.2 nM; with SK-MEL-28 melanoma, less than 0.01 µM. Moreover, the TGI in the test on SF-295 CNS is 0.0227 µM; in the test on SF-539 CNS, less than 0.0472 µM; in the test on HCC-2998 colon, 0.0193 µM; in the test on RPMI-8226 leukemia, less than 0.0309 µM; in the test with MDA-MB-435 it was less than 0.01 µM; in the test with U251 CNS it was 11.2 µM. The TGI with HCT-15 colon was 26.4 µM; with SK-MEL-28 melanoma it was less than 0.0149 µM.

Consider `CCCCCCCCCCCCSC(=NC)NC`, for which the GI50 was 1910 nM in the test with SF-295 CNS; 1670 nM in the test on SF-539 CNS; 3.12 µM in the test on DU-145 prostate; 1.6 µM with HCC-2998 colon; 2070 nM with RPMI-8226 leukemia; 1.83 µM in the test on OVCAR-5 ovarian. Besides, the GI50 in the test with MDA-MB-435 was 1740 nM; in the test with HCT-15 colon it was 1550 nM; in the test with SK-MEL-28 melanoma it was 1.72 µM. Also, the TGI stood at 3.86 µM in the test with SF-295 CNS; 3.14 µM in the test on SF-539 CNS; 12.3 µM in the test on DU-145 prostate; 3.03 µM in the test on HCC-2998 colon; 4.77 µM with RPMI-8226 leukemia; 4.16 µM with OVCAR-5 ovarian. Besides, the results for the TGI with MDA-MB-435, in the test with HCT-15 colon and in the test with SK-MEL-28 melanoma were 3.3 µM, 3.39 µM and 3.22 µM, respectively.

The record behind these values is PubChem BioAssay (NCI).
